Experimental data as given in patent US20210052616A1, “ANTHRACYCLINE ENCAPSULATED WITH A POLYSACCHARIDE FOR USE IN THE TREATMENT OF TUMOURS” (NANOVELOS S.A, priority 2018, published 2021).

Legend:
Type in all cases: cell-based
[1] = system: A549; assay: MTT cytotoxicity test, A549; conditions: 24 h
Description: (§1) In this test, […] present in the cells converts the soluble tetrazolium salt (3-4,5-dimethylthiazol-2-yl)-2,5-diphenyltetrazolium bromide) into a reduced form. The reaction yields water-insoluble purple crystalline formazan. The number of crystals formed depends on the enzyme activity so that it is directly proportional to the number of viable cells in the sample. Spectrophotometric measurement requires the use of an organic solvent to dissolve the crystals obtained (isopropanol). The change in colour intensity is measured by spectrophotometry at 570 nm wavelength. The test was performed for a number of dilutions (9) of nanoparticle solutions containing the tested anthracycline. The baseline concentration of nanoparticles for MTT tests was 2.5 mg of nanoparticles/ml. […] The study was also performed for drug-free nanoparticles (the carrier itself was obtained similarly to the nanoparticles with the drug). Cells not exposed to toxic substances were used as a control for toxicity studies.
(§2) After reaching 85-90% confluence, the cells were trypsinised using a 0.25% trypsin solution. The cells were then centrifuged (1200 rpm, 5 min.) and suspended in a culture medium suitable for a particular cell line. […] The cells were plated at a concentration of 1000 cells/100 μl of medium per culture well (96-well plates). The prepared plates were incubated (37° C./5% CO2/22 h to 26 h). Subsequently, the culture medium was replaced with a fresh one (100 μl) containing the appropriate concentration of the tested nanoparticles and set aside for 24 h (37° C./5% CO2). After the lapse of the test time, the medium was removed and replaced with 50 μl of an MTT reagent solution at a concentration of 1 mg/ml. The plate was incubated for 2 hours (37° C./5% CO2). Subsequently, the MTT solution was removed, and 100 μl of isopropanol was added. […] The mean value of absorbance read OD570 of the cells not exposed to a toxic agent (control) should be above 0.7 [see literature item 206].
(§3) A decrease in the number of viable cells causes a decrease in metabolic activity in the sample. This reduction directly correlates with the amount of blue and purple formazan formed, monitored basing on the optical density at 570 nm. The following equation (C.1) is used to calculate viability reduction compared to control:
(§4) where: • OD570e is the mean value of the measured absorbance of the test samples; • OD570b is the mean value of the measured absorbance of the control.
(§5) The results obtained were statistically analysed using the Dixon Q test.

[2] = system: ACHN; assay: MTT cytotoxicity test, ACHN; conditions: 24 h
Description: as §1, §2, §3, §4, §5

[3] = system: AU565; assay: MTT cytotoxicity test, AU565; conditions: 24 h
Description: as §1, §2, §3, §4, §5

[4] = system: COLO 205; assay: MTT cytotoxicity test, COLO 205; conditions: 24 h
Description: as §1, §2, §3, §4, §5

[5] = MTT cytotoxicity test, HeLa; conditions: human, HeLa cells
Description: (§6) In this test, […] present in the cells converts the soluble tetrazolium salt (3-4,5-dimethylthiazol-2-yl)-2,5-diphenyltetrazolium bromide) into a reduced form. The reaction yields water-insoluble purple crystalline formazan. The number of crystals formed depends on the enzyme activity so that it is directly proportional to the number of viable cells in the sample. Spectrophotometric measurement requires the use of an organic solvent to dissolve the crystals obtained (isopropanol). The change in colour intensity is measured by spectrophotometry at 570 nm wavelength. The test was performed for a number of dilutions (9) of nanoparticle solutions containing the tested anthracycline. The baseline concentration of nanoparticles for MTT tests was 2.5 mg of nanoparticles/ml. The results were compared to cytotoxicity results obtained for pure drugs with equimolar drug concentration (equal to the concentration encapsulated in nanoparticles). The study was also performed for drug-free nanoparticles (the carrier itself was obtained similarly to the nanoparticles with the drug). Cells not exposed to toxic substances were used as a control for toxicity studies.
(§7) After reaching 85-90% confluence, the cells were trypsinised using a 0.25% trypsin solution. The cells were then centrifuged (1200 rpm, 5 min.) and suspended in a culture medium suitable for a particular cell line. […] The cells were plated at a concentration of 1000 cells/100 μl of medium per culture well (96-well plates). The prepared plates were incubated (37° C./5% CO2/22 h to 26 h). Subsequently, the culture medium was replaced with a fresh one (100 μl) containing the appropriate concentration of the tested nanoparticles and set aside for 24 h (37° C./5% CO2). After the lapse of the test time, the medium was removed and replaced with 50 μl of an MTT reagent solution at a concentration of 1 mg/ml. The plate was incubated for 2 hours (37° C./5% CO2). Subsequently, the MTT solution was removed, and 100 μl of isopropanol was added. After shaking the plate on the shaker for 2 minutes, the results for 570 nm wavelength were read (reference value of 650 nm). The mean value of absorbance read OD570 of the cells not exposed to a toxic agent (control) should be above 0.7 [see literature item 206].
as §3, §4, §5

[6] = system: HeLa cell line; assay: MTT cytotoxicity test, HeLa; conditions: 24 h
Description: as §6, §7, §3, §4, §5

[7] = system: PANC-1; assay: MTT cytotoxicity test, PANC-1; conditions: 24 h
Description: as §1, §2, §3, §4, §5

[8] = 1.25E+04 ng/ml NPs (pure drug equimolar)
[9] = 1.25E+05 ng/ml NPs (pure drug equimolar)
[10] = 1.25E+06 ng/ml NPs (pure drug equimolar)
[11] = 2.50E+04 ng/ml NPs (pure drug equimolar)
[12] = 2.50E+05 ng/ml NPs (pure drug equimolar)
[13] = 5.00E+04 ng/ml NPs (pure drug equimolar)
[14] = 5.00E+05 ng/ml NPs (pure drug equimolar)

Q: What does the source list for COc1cccc2c1C(=O)c1c(O)c3c(c(O)c1C2=O)C[C@@](O)(C(C)=O)C[C@@H]3O[C@H]1C[C@H](N)[C@H](O)[C@H](C)O1 [Dau, daunorubicin]?
A: Average viability ([1]; A549, 1.25E+04 ng/ml NPs (pure drug equimolar)): 57.00%; Average viability ([1]; A549, 1.25E+05 ng/ml NPs (pure drug equimolar)): 49.55%; Average viability ([1]; A549, 1.25E+06 ng/ml NPs (pure drug equimolar)): 0.53%; Average viability ([1]; A549, 2.50E+04 ng/ml NPs (pure drug equimolar)): 55.31%; Average viability ([1]; A549, 2.50E+05 ng/ml NPs (pure drug equimolar)): 52.82%; Average viability ([1]; A549, 2.50E+06 ng/ml NPs (pure drug equimolar)): 65.72%; Average viability ([1]; A549, 5.00E+03 ng/ml NPs (pure drug equimolar)): 65.72%; Average viability ([1]; A549, 5.00E+04 ng/ml NPs (pure drug equimolar)): 50.80%; Average viability ([1]; A549, 5.00E+05 ng/ml NPs (pure drug equimolar)): 0.60%; Average viability [2, 8]: 43.86%; Average viability [2, 9]: 2.75%; Average viability [2, 10]: 5.35%; Average viability [2, 11]: 1.60%; Average viability [2, 12]: 2.24%; Average viability [2, 13]: 2.88%; Average viability [2, 14]: 3.02%; Average viability ([3]; AU565, 1.25E+04 ng/ml NPs (pure drug equimolar)): 58.57%; Average viability ([3]; AU565, 1.25E+05 ng/ml NPs (pure drug equimolar)): 25.83%; Average viability ([3]; AU565, 1.25E+06 ng/ml NPs (pure drug equimolar)): 1.544%; Average viability ([3]; AU565, 2.50E+04 ng/ml NPs (pure drug equimolar)): 33.22%; Average viability ([3]; AU565, 2.50E+05 ng/ml NPs (pure drug equimolar)): 12.14%; Average viability ([3]; AU565, 2.50E+06 ng/ml NPs (pure drug equimolar)): 1.053%; Average viability ([3]; AU565, 5.00E+03 ng/ml NPs (pure drug equimolar)): 75.96%; Average viability ([3]; AU565, 5.00E+04 ng/ml NPs (pure drug equimolar)): 28.26%; Average viability ([3]; AU565, 5.00E+05 ng/ml NPs (pure drug equimolar)): 3.245%; Average viability ([4]; Colo205, 1.25E+04 ng/ml NPs (pure drug equimolar)): 34.20%; Average viability ([4]; Colo205, 1.25E+05 ng/ml NPs (pure drug equimolar)): 3.75%; Average viability ([4]; Colo205, 1.25E+06 ng/ml NPs (pure drug equimolar)): 5.07%; Average viability ([4]; Colo205, 2.50E+04 ng/ml NPs (pure drug equimolar)): 19.17%; Average viability ([4]; Colo205, 2.50E+05 ng/ml NPs (pure drug equimolar)): 3.47%; Average viability ([4]; Colo205, 2.50E+06 ng/ml NPs (pure drug equimolar)): 30.89%; Average viability ([4]; Colo205, 5.00E+03 ng/ml NPs (pure drug equimolar)): 30.89%; Average viability ([4]; Colo205, 5.00E+04 ng/ml NPs (pure drug equimolar)): 4.46%; Average viability ([4]; Colo205, 5.00E+05 ng/ml NPs (pure drug equimolar)): 2.93%; viability at 24 h, 125000 ng/ml NPs (pure drug equimolar) [5, 9]: 7.89%; viability at 24 h, 25000 ng/ml NPs (pure drug equimolar) [5, 11]: 2.11%; viability at 24 h, 50000 ng/ml NPs (pure drug equimolar) [5, 13]: 4.14%; Average viability [6, 8]: 2.851%; Average viability [6, 10]: 107.342%; Average viability [6, 12]: 7.579%; Average viability ([6]; 2.50E+06 ng/ml NPs (pure drug equimolar)): 111.366%; Average viability ([6]; 5.00E+03 ng/ml NPs (pure drug equimolar)): 2.054%; Average viability [6, 14]: 28.287%; Average viability ([7]; PANC1, 1.25E+05 ng/ml NPs (pure drug equimolar)): 48.79%; Average viability ([7]; PANC1, 1.25E+06 ng/ml NPs (pure drug equimolar)): 1.02%; Average viability ([7]; PANC1, 2.50E+04 ng/ml NPs (pure drug equimolar)): 61.24%; Average viability ([7]; PANC1, 2.50E+05 ng/ml NPs (pure drug equimolar)): 33.21%; Average viability ([7]; PANC1, 2.50E+06 ng/ml NPs (pure drug equimolar)): 95.12%; Average viability ([7]; PANC1, 5.00E+03 ng/ml NPs (pure drug equimolar)): 95.12%; Average viability ([7]; PANC1, 5.00E+04 ng/ml NPs (pure drug equimolar)): 56.67%; Average viability ([7]; PANC1, 5.00E+05 ng/ml NPs (pure drug equimolar)): 0.54%
